Where a name gives a salt, the structure may show the parent alone.
Key:
[1] = Rectal (body) temperature in mice; type: in vivo, mice (BALB line); conditions: for Body temperature (T): Table 2, 390 mg/kg (1.0 mM/kg; 1/2 LD16)
Experimental: (§1) In all cases trials were carried out on mice of the BALB line of 3-4 month age. […] In the case of water-soluble compounds aqueous solutions of the test compounds were injected intraperitoneally (i.p.), while water-insoluble compounds were introduced orally (p.o.).
(§2) Rectal temperature changes (absolute magnitudes in ° C.) were measured using a medicinal electrothermometer TREM-1 (Table 1). […] The data on oxygen consumption are given an percents relative to the starting content of oxygen taken as 100 (Table 2).

[2] = Oxygen consumption in mice (closed testing unit, gas analyzer MN 5130); type: in vivo, mice (BALB line); conditions: for Lowering of oxygen consumption: relative to initial value; for Consumption of oxygen (O2): relative to starting content taken as 100, 390 mg/kg (1.0 mM/kg; 1/2 LD16), mice
Experimental: as §1, §2

[3] = physchem; type: physicochemical; conditions: twin-water 1:9
Experimental: (§3) Compound 1 was dissolved in a twin-water 1:9 (concentration of saturated solution was 40 mg/ml) and introduced intraperitoneally at the rate of 0.2 ml per 20 g of mouse weight.

[4] = Observed behavioural effects in mice after introduction; type: in vivo, mice (BALB line); conditions: intraperitoneally
Experimental: In all cases trials were carried out on mice of the BALB line of 3-4 month age. Non-toxic doses of compounds under test, varying from 60 to 400 mg/kg, were used in all experiments. In the case of water-soluble compounds aqueous solutions of the test compounds were injected intraperitoneally (i.p.), while water-insoluble compounds were introduced orally (p.o.).
as §3

[5] = Rectal temperature in rats; type: in vivo
[6] = Lethal dose determination (LD16, LD50, LD84) in mice; conditions: mouse, in vivo, ip

CCOC(=O)C(=NOC)C1=NN=C(N2CCSCC2)SC1 [Compound 4, Ethyl-1-methoxyimino-1-(2-thiomorpholino-6H-1,3,4-thiadiazine-5-yl)acetate, mesylate]
Body temperature ([1]; 166.0 mg/kg (0.39 mM/kg) i.p., 0 minutes): 38.1 °C
Body temperature ([1]; 166.0 mg/kg (0.39 mM/kg) i.p., 30 minutes): 33.9 °C
Body temperature ([1]; 166.0 mg/kg (0.39 mM/kg) i.p., 60 minutes): 34.9 °C
Body temperature ([1]; 166.0 mg/kg (0.39 mM/kg) i.p., 120 minutes): 35.7 °C
Body temperature ([1]; 166.0 mg/kg (0.39 mM/kg) i.p., 180 minutes): 37.4 °C

CCOC(=O)C(=NOC)C1=NN=C(N2CCOCC2)SC1 [Compound 2, Ethyl-1-methoxyimino-1-(2-morpholino-6H-1,3,4-thiadiazine-5-yl)acetate, mesylate]
Body temperature ([1]; 410.0 mg/kg (1.0 mM/kg) i.p., 0 minutes): 38.5 °C
Body temperature ([1]; 410.0 mg/kg (1.0 mM/kg) i.p., 30 minutes): 31.9 °C
Body temperature ([1]; 410.0 mg/kg (1.0 mM/kg) i.p., 60 minutes): 32.8 °C
Body temperature ([1]; 410.0 mg/kg (1.0 mM/kg) i.p., 90 minutes): 35.3 °C
Body temperature ([1]; 410.0 mg/kg (1.0 mM/kg) i.p., 120 minutes): 36.4 °C
Body temperature ([1]; 410.0 mg/kg (1.0 mM/kg) i.p., 180 minutes): 37.6 °C
Body temperature ([1]; 410.0 mg/kg (1.0 mM/kg) i.p., 240 minutes): 38.8 °C

CCOC(=O)C(=NOC)C1=NN=C(N2CCOCC2)SC1 [Compound 1, Ethyl-1-methoxyimino-1-(2-morpholino-6H-1,3,4-thiadiazine-5-yl)acetate, hydrobromide]
Restoration of oxygen consumption ([2]; Table 2, mice): Full restoration of oxygen consumption was not observed
Lowering of oxygen consumption ([2]; at the fourth hour): 2 fold
Lowering of oxygen consumption ([2]; during the first hour): 7-10 fold
Lowering of oxygen consumption ([2]; for the next 2 hours): 3-4 fold
Consumption of oxygen (O2) ([2]; 0 minutes): 100 percents
Consumption of oxygen (O2) ([2]; 5 minutes): 8.1 percents
Consumption of oxygen (O2) ([2]; 15 minutes): 0.1 percents
Consumption of oxygen (O2) ([2]; 30 minutes): 0.2 percents
Consumption of oxygen (O2) ([2]; 60 minutes): 12.0 percents
Consumption of oxygen (O2) ([2]; 90 minutes): 27.0 percents
Consumption of oxygen (O2) ([2]; 120 minutes): 26.0 percents
Consumption of oxygen (O2) ([2]; 180 minutes): 28.0 percents
Consumption of oxygen (O2) ([2]; 240 minutes): 59.0 percents
Time to maximum temperature drop [1]: 90 to 120 min
Body temperature ([1]; 391.7 mg/kg (1.0 mM/kg) i.p., 0 minutes): 37.9 °C
Body temperature ([1]; 391.7 mg/kg (1.0 mM/kg) i.p., 30 minutes): 29.6 °C
Body temperature ([1]; 391.7 mg/kg (1.0 mM/kg) i.p., 60 minutes): 26.5 °C
Body temperature ([1]; 391.7 mg/kg (1.0 mM/kg) i.p., 90 minutes): 24.8 °C
Body temperature ([1]; 391.7 mg/kg (1.0 mM/kg) i.p., 120 minutes): 24.6 °C
Body temperature ([1]; 391.7 mg/kg (1.0 mM/kg) i.p., 180 minutes): 32.6 °C
Body temperature ([1]; 391.7 mg/kg (1.0 mM/kg) i.p., 240 minutes): 34.6 °C
Body temperature ([1]; 391.7 mg/kg (1.0 mM/kg) i.p., 300 minutes): 35.9 °C
Fall of rectal temperature ([1]; 10 minutes after introduction): 3-4 °C
Body temperature (T) ([1]; 5 minutes): 33.5 °C
Body temperature (T) ([1]; 15 minutes): 31.2 °C
Fall of rectal temperature ([1]; after 30 minutes): 7-8 °C
Temperature difference ([1]; after five hours): 2 °C
Drop of body temperature ([1]; introduced intraperitoneally): drop of body temperature
Maximum temperature drop ([1]; reached in 90-120 minutes): 12-13 °C
solubility [3]: 40 mg/mL
Effects of introduction [4]: akiriesia, suppression of reflexes to external disturbance, lateral state of mice
Fall of rectal temperature ([5]; 10 minutes after introduction): 3-4 °C
Fall of rectal temperature ([5]; after 30 minutes): about 5 °C
LD16 [6]: 788.4 mg/kg
LD50 [6]: 830 mg/kg
LD84 [6]: 881.5 mg/kg
